ChEMBL document CHEMBL1201862, “PubChem BioAssay data set” (2004)
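Step 1: Grow cells in 96-well plates. Step 2: Expose to compound for 48 hours at 5 concentrations. Step 3: Interpolate endpoints linearly; if unreached, use highest concentration. The concentration for 50% growth inhibition is given as GI50.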 Active and inactive are the calls of the source. Cut-off read from the data, not from the text of the source: active = GI50 up to about 1.1 µM and inactive = higher.

Assays:
Assay in all cases: inhibition of tumour cell growth, NCI panel, 48 h
[1] = test system: A549
[2] = test system: BT-549
[3] = test system: CAKI-1
[4] = test system: DU-145
[5] = test system: HCC 2998
[6] = test system: HCT-15
[7] = test system: HOP-62
[8] = test system: K562
[9] = test system: MDA-MB-231
[10] = test system: MDA-MB-435
[11] = test system: NCI-H460
[12] = test system: NCI-H522
[13] = test system: NCI/ADR-RES
[14] = test system: SF-268
[15] = test system: SF-295
[16] = test system: SK-MEL-28
[17] = test system: SN12C
[18] = test system: SNB-19
[19] = test system: SR
[20] = test system: SW-620

SMILES | GI50 [1] | GI50 [2] | GI50 [3] | GI50 [4] | GI50 [5] | GI50 [6] | GI50 [7] | GI50 [8] | GI50 [9] | GI50 [10] | GI50 [11] | GI50 [12] | GI50 [13] | GI50 [14] | GI50 [15] | GI50 [16] | GI50 [17] | GI50 [18] | GI50 [19] | GI50 [20]
COc1ccc2c(c1[N+](=O)[O-])CC[C@@H]1[C@@H]2CC[C@]2(C)C(=O)CC[C@@H]12 | > 25 µM (inactive) | > 25 µM (inactive) | > 25 µM (inactive) | > 25 µM (inactive) | > 1000 µM (inactive) | > 25 µM | > 6.71 µM (inactive) | 24.9 µM (inactive) | > 25 µM (inactive) | > 25 µM (inactive) | 24.9 µM (inactive) | > 25 µM (inactive) | > 25 µM (inactive) | > 25 µM (inactive) | > 25 µM (inactive) | 20.7 µM (inactive) | > 25 µM (inactive) | 24.2 µM (inactive) | > 1000 µM (inactive) | > 25 µM (inactive)
COc1ccc(C(Nc2ccccn2)c2cc(C(C)(C)C)cc(C(C)(C)C)c2O)cc1 (stereo not given) | 30 µM (inactive) | 17 µM (inactive) | 39.4 µM (inactive) | 7.76 µM (inactive) | 12.3 µM (inactive) | 22.3 µM | 16.9 µM (inactive) | 55 µM (inactive) | 33.4 µM (inactive) | 17.4 µM (inactive) | 16.7 µM (inactive) | 4.05 µM (inactive) | 16 µM (inactive) | 5.65 µM (inactive) | 12.4 µM (inactive) | 50.4 µM (inactive) | 18.1 µM (inactive) | 61 µM (inactive) | 10.1 µM (inactive) | 19.2 µM (inactive)
CC(C)CC(=O)OC[n+]1cccc(-c2c(COC(=O)NC(C)C)c(COC(=O)NC(C)C)c3n2CCC3)c1 | 79.1 µM (inactive) | 77.3 µM (inactive) | 17.2 µM (inactive) | 24.7 µM (inactive) | > 100 µM (inactive) | 66.8 µM | 41.7 µM (inactive) | 51.9 µM (inactive) | 37.4 µM (inactive) | > 100 µM (inactive) | 30.1 µM (inactive) | 23.7 µM (inactive) | 35.2 µM (inactive) | 29 µM (inactive) | 39 µM (inactive) | > 100 µM (inactive) | 36.9 µM (inactive) | > 100 µM (inactive) | > 100 µM (inactive) | 51.1 µM (inactive)
COc1ccc(OC)c(C2CCc3cnc4nc(N)nc(N)c4c3C2)c1 (stereo not given) | 59.6 µM (inactive) | > 100 µM (inactive) | > 100 µM (inactive) | > 100 µM (inactive) | > 100 µM (inactive) | > 100 µM | > 100 µM (inactive) | 46.9 µM (inactive) | > 100 µM (inactive) | 87.1 µM (inactive) | 57.3 µM (inactive) | > 100 µM (inactive) | > 100 µM (inactive) | > 100 µM (inactive) | 56.2 µM (inactive) | > 100 µM (inactive) | > 100 µM (inactive) | > 100 µM (inactive) | 56.9 µM (inactive) | > 100 µM (inactive)
CCOC(=O)C(CCc1ncnc2c1ncn2Cc1ccccc1)(CCc1ncnc2c1ncn2Cc1ccccc1)C(=O)OCC | 39.2 µM (inactive) | 76.6 µM (inactive) | 51.8 µM (inactive) | 89.3 µM (inactive) | 19.9 µM (inactive) | 52.7 µM | > 100 µM (inactive) | 42.5 µM (inactive) | 53.3 µM (inactive) | 52.1 µM (inactive) | 40.4 µM (inactive) | 33.9 µM (inactive) | 49.7 µM (inactive) | 69.5 µM (inactive) | 70.3 µM (inactive) | 98.9 µM (inactive) | 58.6 µM (inactive) | > 100 µM (inactive) | 26.4 µM (inactive) | > 100 µM (inactive)
CC(C)NC(=O)OCc1c(COC(=O)NC(C)C)n(C)c2c1ccc1ccccc12 | 9.98 µM (inactive) | 0.398 µM (active) | 0.542 µM (active) | 3.1 µM (inactive) | 2.88 µM (inactive) | 1.54 µM | 4.75 µM (inactive) | 0.171 µM (active) | 1.57 µM (inactive) | 1.52 µM (inactive) | 2.53 µM (inactive) | 0.0417 µM (active) | 2.29 µM (inactive) | 1.9 µM (inactive) | 4.56 µM (inactive) | 1.99 µM (inactive) | 2.02 µM (inactive) | 1.74 µM (inactive) | 0.57 µM (active) | 1.37 µM (inactive)
NC1=NCC(CN2CCCC2)O1 (stereo not given) | > 100 µM (inactive) | > 100 µM (inactive) | > 100 µM (inactive) | > 100 µM (inactive) | > 100 µM (inactive) | > 100 µM | > 100 µM (inactive) | > 100 µM (inactive) | > 100 µM (inactive) | > 100 µM (inactive) | > 100 µM (inactive) | > 100 µM (inactive) | > 100 µM (inactive) | > 100 µM (inactive) | > 100 µM (inactive) | > 100 µM (inactive) | > 100 µM (inactive) | > 100 µM (inactive) | > 100 µM (inactive) | > 100 µM (inactive)
COc1ccc(N2C(=O)CSC2c2cc3cc(Br)ccc3nc2Cl)cc1 (stereo not given) | 48.6 µM (inactive) | > 50 µM (inactive) | 27.5 µM (inactive) | > 50 µM (inactive) | > 50 µM (inactive) | 31.5 µM | > 50 µM (inactive) | 14.1 µM (inactive) | > 50 µM (inactive) | 23.7 µM (inactive) | 22.1 µM (inactive) | 27.4 µM (inactive) | 44.1 µM (inactive) | > 50 µM (inactive) | 19.9 µM (inactive) | > 50 µM (inactive) | > 50 µM (inactive) | > 50 µM (inactive) | 18.7 µM (inactive) | > 50 µM (inactive)
